In PMC10692362 (Acta Pharmaceutica Sinica. B, 2023):
Read-outs that look alike come from different tables or passages of the source.

What was measured:
[1] = test system: T-47D^D538G cells; assay: Cell viability assay; type: cell-based, human; details: Homo sapiens, 72 h, read-out: T-47D^D538G IC50
[2] = target: T1, human ERα LBD (Homo sapiens, UniProt P03372); assay: Competitive fluorescence polarization binding assay, ERα; details: for RBA ERα: IC50 estradiol/IC50 compound × 100, estradiol = 100%; for α/β ratio: ratio of RBA ERα to RBA ERβ
T1 sequence (P03372 311-547 limits assumed): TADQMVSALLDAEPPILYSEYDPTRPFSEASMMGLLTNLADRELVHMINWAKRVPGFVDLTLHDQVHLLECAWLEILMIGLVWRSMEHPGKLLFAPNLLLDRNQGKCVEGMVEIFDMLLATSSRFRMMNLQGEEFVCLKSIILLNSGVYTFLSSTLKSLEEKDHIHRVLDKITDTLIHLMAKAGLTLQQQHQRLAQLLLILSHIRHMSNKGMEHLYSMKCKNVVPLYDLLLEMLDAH

[3] = test system: T-47D^Y537S cells; assay: Cell viability assay; type: cell-based, human; details: Homo sapiens, 72 h, read-out: T-47D^Y537S IC50
[4] = target: human ERβ LBD (Homo sapiens, UniProt Q92731); assay: Competitive fluorescence polarization binding assay, ERβ; details: for RBA ERβ: IC50 estradiol/IC50 compound × 100, estradiol = 100%
Sequence of human ERβ LBD (Q92731 264-498 limits assumed): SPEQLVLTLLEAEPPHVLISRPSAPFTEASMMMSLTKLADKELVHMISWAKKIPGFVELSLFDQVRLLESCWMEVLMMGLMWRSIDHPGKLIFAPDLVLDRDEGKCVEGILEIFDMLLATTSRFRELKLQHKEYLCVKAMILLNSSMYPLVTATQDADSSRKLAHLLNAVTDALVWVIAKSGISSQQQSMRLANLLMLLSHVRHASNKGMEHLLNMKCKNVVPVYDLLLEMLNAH

[5] = test system: MCF-7 cells; assay: Cell viability assay; type: cell-based, human; details: Homo sapiens, MCF7, 72 h, read-out: MCF-7 IC50
[6] = test system: T-47D cells; assay: Cell viability assay; type: cell-based, human; details: Homo sapiens, T47D, 72 h, read-out: T-47D IC50

SMILES | IC50 [1] [µM] | Ki [2] [µM] | RBA ERα [2] [%] | α/β ratio [2] | IC50 [3] [µM] | Ki [4] [µM] | RBA ERβ [4] [%] | IC50 [5] [µM] | IC50 [6] [µM] | Ki ([2]; read-out: Ki ERα) [µM] | Ki ([4]; read-out: Ki ERβ) [µM]
O=C(CCl)Nc1ccc(OS(=O)(=O)C2CC3OC2C(c2ccc(O)cc2)=C3c2ccc(O)cc2)cc1 (stereo not shown) [Compound 26e, 4-(2-Chloroacetamido)phenyl-5,6-bis(4-hydroxyphenyl)-7-oxabicyclo[2.2.1]hept-5-ene-2-sulfonate] | 7.86 ± 0.37 | 0.00271 | 1.02 ± 0.13 | 1.85 | 8.85 ± 0.61 | 0.0121 | 0.55 ± 0.02 | 3.42 ± 0.32 | 8.2 ± 0.36 |  | 
C=CC(=O)Nc1ccc(C2=C(c3ccc(O)cc3)C3OC2CC3S(=O)(=O)N(CC(F)(F)F)c2ccc(O)cc2)cc1 (stereo not shown) [Compound 29a, N-(4-(3-(4-Hydroxyphenyl)-5-(N-(4-hydroxyphenyl)-N-(2,2,2-trifluoroethyl)sulfamoyl)-7-oxabicyclo[2.2.1]hept-2-en-2-yl)phenyl)acrylamide] | 5.55 ± 0.24 |  | 20.03 ± 0.25 | 2.97 | > 31 |  | 6.74 ± 0.21 | 0.18 ± 0.05 | 2.85 ± 0.29 | 0.00014 | 0.00099
O=C(CCl)Nc1ccc(C2=C(c3ccc(O)cc3)C3CC(S(=O)(=O)Oc4ccccc4)C2O3)cc1 (stereo not shown) [Compound 28d, Phenyl-6-(4-(2-chloroacetamido)phenyl)-5-(4-hydroxyphenyl)-7-oxabicyclo[2.2.1]hept-5-ene-2-sulfonate] | > 31 | 0.0008 | 3.46 ± 0.02 | 3.76 | > 31 | 0.00725 | 0.92 ± 0.17 | 0.66 ± 0.12 | 13.3 ± 0.77 |  | 
CC(C)=CC(=O)Nc1ccc(C2=C(c3ccc(O)cc3)C3OC2CC3S(=O)(=O)Oc2ccccc2)cc1 (stereo not shown) [Compound 28c, Phenyl-6-(4-hydroxyphenyl)-5-(4-(3-methylbut-2-enamido)phenyl)-7-oxabicyclo[2.2.1]hept-5-ene-2-sulfonate] | 17.6 ± 0.89 | 0.00012 | 22.13 ± 0.92 | 24.59 | > 31 | 0.00741 | 0.90 ± 0.25 | 0.35 ± 0.02 | 24.9 ± 0.77 |  | 
O=C(CBr)Nc1ccc(OS(=O)(=O)C2CC3OC2C(c2ccc(O)cc2)=C3c2ccc(O)cc2)cc1 (stereo not shown) [Compound 26f, 4-(2-Bromoacetamido)phenyl-5,6-bis(4-hydroxyphenyl)-7-oxabicyclo[2.2.1]hept-5-ene-2-sulfonate] | > 31 |  |  | 2.08 | > 31 |  | 3.86 ± 0.34 | 0.5 ± 0.3 | 9.11 ± 0.21 |  | 
C#CC(=O)Nc1ccc(OS(=O)(=O)C2CC3OC2C(c2ccc(O)cc2)=C3c2ccc(O)cc2)cc1 (stereo not shown) [Compound 26d, 4-Propiolamidophenyl-5,6-bis(4-hydroxyphenyl)-7-oxabicyclo[2.2.1]hept-5-ene-2-sulfonate] | 9.33 ± 0.46 | 0.00325 | 0.85 ± 0.08 | 1.73 | 8.93 ± 0.25 | 0.0136 | 0.49 ± 0.04 | 1.79 ± 0.4 | 6.91 ± 0.29 |  | 
C/C=C/C(=O)Nc1ccc(OS(=O)(=O)C2CC3OC2C(c2ccc(O)cc2)=C3c2ccc(O)cc2)cc1 (stereo not shown) [Compound 26b, 4-((E)-But-2-enamido)phenyl-5,6-bis(4-hydroxyphenyl)-7-oxabicyclo[2.2.1]hept-5-ene-2-sulfonate] | > 31 | 0.00058 | 4.77 ± 0.16 | 11.93 | > 31 | 0.0167 | 0.40 ± 0.05 | 9.18 ± 0.95 | 19.4 ± 0.54 |  | 
CC(C)=CC(=O)Nc1ccc(C2=C(c3ccc(O)cc3)C3OC2CC3S(=O)(=O)N(CC(F)(F)F)c2ccc(F)cc2)cc1 (stereo not shown) [Compound 29g, N-(4-(5-(N-(4-Fluorophenyl)-N-(2,2,2-trifluoroethyl)sulfamoyl)-3-(4-hydroxyphenyl)-7-oxabicyclo[2.2.1]hept-2-en-2-yl)phenyl)-3-methylbut-2-enamide] | 7.82 ± 0.47 | 0.00037 | 7.52 ± 0.29 | 7.37 | > 31 | 0.00654 | 1.02 ± 0.13 | 0.64 ± 0.1 | 5.28 ± 0.23 |  | 
CC(C)=CC(=O)Nc1ccc(C2=C(c3ccc(O)cc3)C3CC(S(=O)(=O)Oc4ccc(O)cc4)C2O3)cc1 (stereo not shown) [Compound 28f, 4-Hydroxyphenyl-5-(4-hydroxyphenyl)-6-(4-(3-methylbut-2-enamido)phenyl)-7-oxabicyclo[2.2.1]hept-5-ene-2-sulfonate] | > 31 | 0.00035 | 7.93 ± 0.34 | 2.41 | 9.11 ± 0.35 | 0.00203 | 3.29 ± 0.25 | 0.93 ± 0.19 | 8.53 ± 0.12 |  | 
CC(C)=CC(=O)Nc1ccc(C2=C(c3ccc(O)cc3)C3CC(S(=O)(=O)N(CC(F)(F)F)c4ccc(C)cc4)C2O3)cc1 (stereo not shown) [Compound 29d, N-(4-(3-(4-Hydroxyphenyl)-6-(N-(p-tolyl)-N-(2,2,2-trifluoroethyl)sulfamoyl)-7-oxabicyclo[2.2.1]hept-2-en-2-yl)phenyl)-3-methylbut-2-enamide] | > 31 | 0.00043 | 6.49 ± 0.21 | 4.74 | > 31 | 0.00487 | 1.37 ± 0.11 | 0.75 ± 0.21 | 8.33 ± 0.22 |  | 
C=CC(=O)Nc1ccc(OS(=O)(=O)C2CC3OC2C(c2ccc(O)cc2)=C3c2ccc(O)cc2)cc1 (stereo not shown) [Compound 26a, 4-Acrylamidophenyl-5,6-bis(4-hydroxyphenyl)-7-oxabicyclo[2.2.1]hept-5-ene-2-sulfonate] | > 31 |  | 8.04 ± 0.87 | 2.08 | 27.2 ± 0.73 |  | 3.86 ± 0.34 | 7.72 ± 0.64 | > 31 |  | 
C=CC(=O)Nc1ccc(C2=C(c3ccc(O)cc3)C3OC2CC3S(=O)(=O)Oc2ccccc2)cc1 (stereo not shown) [Compound 28a, Phenyl-5-(4-acrylamidophenyl)-6-(4-hydroxyphenyl)-7-oxabicyclo[2.2.1]hept-5-ene-2-sulfonate] | > 31 | 0.00015 | 18.55 ± 0.34 | 15.59 | > 31 | 0.00561 | 1.19 ± 0.27 | 5.07 ± 0.71 | > 31 |  | 
CC(C)=CC(=O)Nc1ccc(C2=C(c3ccc(O)cc3)C3CC(S(=O)(=O)N(CC(F)(F)F)c4ccccc4)C2O3)cc1 (stereo not shown) [Compound 29e, N-(4-(3-(4-Hydroxyphenyl)-6-(N-phenyl-N-(2,2,2-trifluoroethyl)sulfamoyl)-7-oxabicyclo[2.2.1]hept-2-en-2-yl)phenyl)-3-methylbut-2-enamide] | 5.18 ± 0.31 | 0.00029 | 9.50 ± 0.09 | 33.9 | 1.79 ± 0.17 | 0.0238 | 0.28 ± 0.05 | 0.66 ± 0.12 | 5.1 ± 0.32 |  | 
C/C=C/C(=O)Nc1ccc(C2=C(c3ccc(O)cc3)C3OC2CC3S(=O)(=O)Oc2ccccc2)cc1 (stereo not shown) [Compound 28b, Phenyl-5-(4-((E)-but-2-enamido)phenyl)-6-(4-hydroxyphenyl)-7-oxabicyclo[2.2.1]hept-5-ene-2-sulfonate] | 17.1 ± 0.65 | 0.0002 | 14.08 ± 0.25 | 1.35 | > 31 | 0.00064 | 10.40 ± 0.23 | 0.44 ± 0.11 | 25.6 ± 0.98 |  | 
Nc1ccc(C2=C(c3ccc(O)cc3)C3OC2CC3S(=O)(=O)N(CC(F)(F)F)c2ccc(O)cc2)cc1 (stereo not shown) [Compound 29l, 5-(4-Aminophenyl)-N,6-bis(4-hydroxyphenyl)-N-(2,2,2-trifluoroethyl)-7-oxabicyclo[2.2.1]hept-5-ene-2-sulfonamide] | > 31 | 0.00114 | 2.43 ± 0.27 | 1.03 | > 31 | 0.00284 | 2.35 ± 0.33 | 3.17 ± 0.33 | 8.11 ± 0.37 |  | 
C/C=C/C(=O)Nc1ccc(C2=C(c3ccc(O)cc3)C3OC2CC3S(=O)(=O)N(CC(F)(F)F)c2ccc(O)cc2)cc1 (stereo not shown) [Compound 29b, (E)-N-(4-(3-(4-Hydroxyphenyl)-5-(N-(4-hydroxyphenyl)-N-(2,2,2-trifluoroethyl)sulfamoyl)-7-oxabicyclo[2.2.1]hept-2-en-2-yl)phenyl)but-2-enamide] | > 31 | 0.00014 | 19.82 ± 0.19 | 31.46 | > 31 | 0.0106 | 0.63 ± 0.14 | 0.36 ± 0.04 | 5.12 ± 0.33 |  | 
O=C(CBr)Nc1ccc(C2=C(c3ccc(O)cc3)C3OC2CC3S(=O)(=O)Oc2ccccc2)cc1 (stereo not shown) [Compound 28e, Phenyl-5-(4-(2-bromoacetamido)phenyl)-6-(4-hydroxyphenyl)-7-oxabicyclo[2.2.1]hept-5-ene-2-sulfonate] | > 31 | 0.00029 | 9.44 ± 0.40 | 26.22 | > 31 | 0.0185 | 0.36 ± 0.03 | 1.1 ± 0.14 | 19.7 ± 0.32 |  | 
